Laboratory results as given in patent publication US10610555B2, “Method for alleviating osteoarthritis by using composite (HL-Joint 100) of achyranthes bidentata, eucommin ulmoides oliver and pomegranate extracts, which has antiinflammatory effect caused by COX2 and PGE2 inhibition, cartilage protective effect caused by MMP-2 and -9 inhibition and cartilage …” (HLSCIENCE CO., LTD., priority 2015, dated 2020).

Legend:
Assay type in all cases: in vivo
[1] = tested on: chondrogenesis-related mRNAs (collagen type II, SOX9 and aggrecan); test: Osteoarthritis rat model: chondrogenesis-related mRNA expression; settings: diclofenac subcutaneous
Procedure: (§1) The osteoarthritis-improving effect of the single or mixed formula of the pomegranate concentrate powder (PCP), the eucommia bark water extract powder (EC) and the achyranthis radix water extract powder (AR) was evaluated. As the representative osteoarthritis (OA) experimental animal model, rats with osteoarthritis (OA) induced by anterior cruciate ligament transaction and partial medial meniscectomy were used [Kim et al., 2012; Kang et al., 2014a; Moon et al., 2014; Choi et al., 2015]. […] In addition, the change in articular cartilage thickness and the number of cyclooxygenase (COX)-2- and tumor necrosis factor (TNF)-α-immunopositive cells in the tibial articular cartilage was monitored [Moore et al. 2005; Kim et al., 2012; Kang et al., 2014a; Choi et al., 2015]. Through this experiment, the anti-inflammatory effect and cartilage-regenerating effect of the pomegranate concentrate powder, the eucommia bark extract and the achyranthis radix extract were evaluated.
(§2) An adequate amount of PCP, EC or AR was dissolved in sterilized distilled water and orally administered at a dosage of 5 mL/kg from 7 days after the osteoarthritis (OA) surgery once a day for 28 days. That is to say, each of the single formulas of PCP, EC and AR and the mixed formulas of PCP and EC:AR (1:1, 1:2, 1:4, 1:6, 1:8, 2:1, 4:1, 6:1 and 8:1) was orally administered at a dosage of 200 mg/kg for 28 days. […]

[2] = tested on: rats with surgically-induced osteoarthritis (OA); test: Osteoarthritis rat model: BrdU-immunopositive cells (cell proliferation); settings: vs OA control group
Procedure: as §1, §2

collagen type II mRNA = test: Osteoarthritis rat model: collagen type II mRNA expression in articular cartilage and joint capsule; settings: OA rats, 200 mg/kg oral 28 days (diclofenac 2 mg/kg s.c.), mean ± SD
Procedure: as §1
An adequate amount of PCP, EC or AR was dissolved in sterilized distilled water and orally administered at a dosage of 5 mL/kg from 7 days after the osteoarthritis (OA) surgery once a day for 28 days. That is to say, each of the single formulas of PCP, EC and AR and the mixed formulas of PCP and EC:AR (1:1, 1:2, 1:4, 1:6, 1:8, 2:1, 4:1, 6:1 and 8:1) was orally administered at a dosage of 200 mg/kg for 28 days. For the sham surgery (sham) and osteoarthritis (OA) control groups, only sterilized distilled water was orally administered instead of the test substances. 2 mg of diclofenac sodium (Wako Pure Chemical Ind. Ltd., Osaka, Japan) dissolved in 5 mL of sterilized physiological saline was subcutaneously administered into the back skin at a dosage of 5 mL/kg (2 mg/kg) from 7 days after the osteoarthritis (OA) surgery once a day for 28 days. The administration dosage was set to 2,000 mg/60 kg×6=200 mg/kg, corresponding to 6 times the expected dosage for human (2,000 mg) in consideration of the body surface area of the rat. […]

[3] = tested on: rats with surgically-induced osteoarthritis (OA); test: Osteoarthritis rat model: knee joint thickness; settings: 200 mg/kg oral (diclofenac 2 mg/kg s.c.); vs OA control group
Procedure: as §1, §2

For `O=C(O)Cc1ccccc1Nc1c(Cl)cccc1Cl` [Diclofenac, diclofenac sodium], the “expression of collagen type II, SOX9 and aggrecan mRNAs in the femoral and tibial articular cartilage” value [1] was “increased expression”, the “number of BrdU-immunopositive cells in the joint capsule” value [2] was “decrease in the number of BrdU-immunopositive cells in the joint capsule” and the “Collagen type II mRNA expressions, Femur AC” value (collagen type II mRNA) was 0.69 ± 0.10^ab. The “Collagen type II mRNA expressions, Tibia AC” value (collagen type II mRNA) was 0.64 ± 0.11^ij, the “Collagen type II mRNA expressions, SM” value (collagen type II mRNA; SM not defined, text speaks of joint capsule) was 2.74 ± 0.95^ij and the knee joint thickness [3] was “significant (p<0.01 or p<0.05) decrease in knee joint thickness”.
